# Paper PMC5653750, “hiPSC-CM Monolayer Maturation State Determines Drug Responsiveness in High Throughput Pro-Arrhythmia Screen” (Scientific Reports, 2017)
# Experiments:
# [1] = test system: fetal-like hiPSC-CM monolayers; assay: 96-well optical mapping of action potentials (FluoVolt), fetal-like monolayers; type: cell-based, human; conditions: for Maximum APD 80 Prolongation Risk Score (Fetal-like hiPSC-CM): maximal effect on APD independent of dose, APD80 divided by vehicle control APD80, 30 min treatment, concentrations up to 10 µM; for effect on action potential duration (APD80), fetal-like monolayers: spontaneous action potentials, result in words
# Source text: (§1) hiPSC-CMs were used from two different commercial sources: Cellular Dynamics International (CDI, Madison WI) and Cellartis (Takara Bio USA). Custom made 96-well plates with inserts of PDMS (Polydimethylsiloxane) were generated essentially as before. PDMS vulcanized silicone transparent sheeting was obtained from SMI (Specialty Manufacturing, Inc, Saginaw, MI) with 40D (D, Durometer or ≈1000 kPa) hardness and 9 mm diameter coverslips were cut out to fit in each well of 96 well plates. PDMS coverslips were manually added to each well of 96 well plates (Corning) and each plate was subsequently sterilized via ethylene oxide sterilization. PDMS coverslips were then matrigel-coated (500 μg/mL; BD Biosciences, San Jose, CA) prior to plating hiPSC-CMs. Thawing and plating of cryopreserved vials of cells into 96-well plates was as essentially described before. Briefly, 5 × 10^4 cells were plated per well and allowed to form continuous monolayers and maintained in RPMI (Life Technologies) media supplemented with B27 + insulin (Life Technologies). Monolayers were maintained in culture for seven days before electrophysiological testing. Immature fetal-like hiPSC-CM monolayers were generated in 96 well plates without the PDMS coverslip inserts. Fetal-like hiPSC-CMs were also plated on matrigel coated plastic bottoms.
# (§2) Optical mapping was performed as essentially described recently[22] with slight modification. A schematic of the 96-well plate optical mapping set up is shown in supplemental Fig. 1. In this assay a 96-well plate is positioned below a high speed CCD camera (200 fps, 80 × 80 pixels) on a heating block to enable recording at physiological temperature (37 °C). hiPSC-CM monolayers were loaded with the membrane potential dye called FluoVolt™ which is commercially available (ThermoFisher Scientific, F10488). Blue LED illumination was used and spontaneous or electrically excited action potentials were recorded with the CCD camera via appropriate emission filter (515 nm, green light, Chroma). For calcium flux quantification monolayers were loaded with fluo-4AM (10 µM). In this assay a 6 × 6 array of wells (supplemental Fig. 1C, 36 wells total) in the 96-well plate could be imaged simultaneously to enable rapid dose response data for all compounds using up to six different doses. Post-acquisition data analysis was done using custom software (Scroll)[22],[25] with automated peak detection capability and automated repolarization quantification to determine APD80 (action potential at 80% of repolarization). […] In some experiments electrical pacing was done to control for rate of activations (supplemental Fig. 3). A custom made frame of field stimulation electrodes was engineered to enable electrical pacing to the 6 × 6 array of wells.
# (§3) Action potentials were recorded in the presence of each test compound.
# (§4) The effect of each compound to prolong or shorten the APD80 of hiPSC-CM monolayers was quantified relative to vehicle control values obtained in each plate. In other words, the APD80 or CaTD80 quantified at each concentration of each compound was divided by the APD80 or CaTD80 quantified for vehicle control wells. Risk score values were quantified for both fetal-like and mature hiPSC-CM monolayers.
# [2] = test system: mature hiPSC-CM monolayers; assay: 96-well optical mapping of action potentials (FluoVolt), mature monolayers; type: cell-based, human; conditions: for Maximum APD 80 Prolongation Risk Score (Mature hiPSC-CM): maximal effect on APD independent of dose, APD80 divided by vehicle control APD80, 30 min treatment, concentrations up to 10 µM; for effect on action potential duration (APD80), mature monolayers: spontaneous action potentials, result in words
# Source text: as §1, §2, §3, §4
# [3] = parameters: method as in PMID 26893184; conditions: cited from earlier work
# [4] = test system: mature hiPSC-CM monolayers; assay: Calcium flux optical mapping (fluo-4AM), mature monolayers; type: cell-based, human; conditions: dose response; n = 4 per dose
# Experimental: (§5) Optical mapping was performed as essentially described recently[22] with slight modification. A schematic of the 96-well plate optical mapping set up is shown in supplemental Fig. 1. In this assay a 96-well plate is positioned below a high speed CCD camera (200 fps, 80 × 80 pixels) on a heating block to enable recording at physiological temperature (37 °C). hiPSC-CM monolayers were loaded with the membrane potential dye called FluoVolt™ which is commercially available (ThermoFisher Scientific, F10488). Blue LED illumination was used and spontaneous or electrically excited action potentials were recorded with the CCD camera via appropriate emission filter (515 nm, green light, Chroma). For calcium flux quantification monolayers were loaded with fluo-4AM (10 µM). […] Post-acquisition data analysis was done using custom software (Scroll)[22],[25] with automated peak detection capability and automated repolarization quantification to determine APD80 (action potential at 80% of repolarization). […]
# (§6) Nilotinib is an anti-cancer kinase inhibitor compound with possible side effects to prolong the QT interval. […] In Fig. 7 calcium transients were recorded using fluo-4AM loaded monolayers to study the effect of nilotinib on intracellular calcium flux dynamics. […]
# [5] = test system: fetal-like hiPSC-CM monolayers; assay: Calcium flux optical mapping (fluo-4AM), fetal-like monolayers; type: cell-based, human; conditions: dose response; n = 4 per dose
# Experimental: as §5, §6
Maximum APD 80 Prolongation Risk Score (Fetal-like hiPSC-CM) [1],Maximum APD 80 Prolongation Risk Score (Mature hiPSC-CM) [2],"effect on action potential duration (APD80), fetal-like monolayers [1]","effect on action potential duration (APD80), mature monolayers [2]",SMILES,other results
1.14,1.33,,,"CN1CCN(C2=Nc3cc(Cl)ccc3Nc3ccccc32)CC1 [Clozapine, clozapine]",
,1.64,,,"CC(C)COCC(CN(Cc1ccccc1)c1ccccc1)N1CCCC1 (stereo not shown) [Bepridil, bepridil]",CiPA risk class for causing Torsade de Pointes (TdP) [3]: high risk
1.36,1.29,APD prolongation was detected,APD prolongation was detected,"Cc1cn(-c2cc(NC(=O)c3ccc(C)c(Nc4nccc(-c5cccnc5)n4)c3)cc(C(F)(F)F)c2)cn1 [Nilotinib, nilotinib]","calcium transient duration 80 (CaTD80), mature monolayers [4]: increased calcium transient duration 80 (CaTD80) in a dose dependent manner; calcium transient duration 80 (CaTD80), fetal-like monolayers [5]: increased calcium transient duration 80 (CaTD80) in a dose dependent manner"
1.15,1.15,,,"COc1cccc2c1C(=O)c1c(O)c3c(c(O)c1C2=O)C[C@@](O)(C(=O)CO)C[C@@H]3O[C@H]1C[C@H](N)[C@H](O)[C@H](C)O1 [Doxorubicin, doxorubicin]",
1,,did not detect any APD80 prolongation,prolonged the action potential duration,"CNCCC(Oc1ccc(C(F)(F)F)cc1)c1ccccc1 (stereo not shown) [Fluoxetine, fluoxetine]","monolayers in which quiescence was caused ([1]; 10.0 µmol L^−1, 8/8 monolayers): 100%; spontaneous beating frequency, fetal-like monolayers ([1]; sub-maximal doses (below 10.0 µmol L^−1)): nor alteration of the spontaneous beating frequency; spontaneous beating rate, mature monolayers [2]: slowed the spontaneous beating rate; quiescence, mature monolayers ([2]; any concentration tested (up to 10.0 µmol L^−1)): did not induce quiescence at any concentration tested; lowest concentration tested, at which action potential duration was already prolonged ([2]; mature monolayers): 1.0 nmol/L"
1.49,1.15,,,"COc1cc(N)c(Cl)cc1C(=O)NC1CCN(CCCOc2ccc(F)cc2)CC1OC (stereo not shown) [Cisapride, cisapride]",CiPA risk class for causing Torsade de Pointes (TdP) [3]: intermediate risk
1.91,1.81,,,"C=C[C@H]1C[N@@]2CC[C@H]1C[C@@H]2[C@@H](O)c1ccnc2ccc(OC)cc12 [Quinidine, quinidine]",
1.43,1.21,more sensitive,,"CC(C)(C)c1ccc(C(O)CCCN2CCC(C(O)(c3ccccc3)c3ccccc3)CC2)cc1 (stereo not shown) [Terfenadine, terfenadine]",CiPA risk class for causing Torsade de Pointes (TdP) [3]: intermediate risk
0.97,,,,"COc1ccc([C@@H]2Sc3ccccc3N(CCN(C)C)C(=O)[C@@H]2OC(C)=O)cc1 [Diltiazem, diltiazem]",
0.91,1.34,shortened action potential duration,prolong the APD,"CCCCc1oc2ccccc2c1C(=O)c1cc(I)c(OCCN(CC)CC)c(I)c1 [Amiodarone, amiodarone]",
1.12,1.04,,,"CC/C(=C(\c1ccccc1)c1ccc(OCCN(C)C)cc1)c1ccccc1 [Tamoxifen, tamoxifen]",

SMILES,Maximum APD 80 Prolongation Risk Score (Fetal-like hiPSC-CM) [1],Maximum APD 80 Prolongation Risk Score (Mature hiPSC-CM) [2],"effect on action potential duration (APD80), fetal-like monolayers [1]","effect on action potential duration (APD80), mature monolayers [2]",other results
"CN(CCOc1ccc(NS(C)(=O)=O)cc1)CCc1ccc(NS(C)(=O)=O)cc1 [Dofetilide, dofetilide]",2.14,,,did not have as severe action potential duration prolongation,"action potential duration alternans, fetal-like monolayers ([1]; electrical pacing 1 Hz, 100 nM): action potential duration alternans were apparent; action potential duration alternans, mature monolayers ([2]; electrical pacing 1 Hz, 100 nM): not in the mature hiPSC-CM monolayers"
